Test results: US5756462A, “Pore forming peptides from Geolycosa riogrande” (priority 1996, dated 1998)
“Also recorded” adds a separate entry of the source.

Columns and labels:
Type in all cases: cell-based
HL-60 cells [1] = test: Mobilization of intracellular Ca2+ after pertussis toxin pretreatment; settings: pretreatment 20 hrs with 100 ng/ml pertussis toxin
Method: Increases in [Ca^2+ ]i arising from the mobilization of intracellular Ca^2+ were inhibited by pretreatment for 20 hrs with 100 ng/ml pertussis toxin (PTx).

HL-60 cells [2] = system: HL-60 cells
Method: Uke the effect of many other pore formers, the effects of these peptides on EB uptake were augmented when the total extracellular divalent cation concentration was reduced to 0.1 mM and inhibited when extracellular Mg^2+ was increased from 1 to 5 mM.
The ability of Geolycosa 17 to form pores in membranes was tested in T3 fibroblasts, parathyroid cells, and differentiated and undifferentiated HL60 cells. Pore formation was assessed by measuring the permeability of the cells to ethidium bromide (EB, MW 394). Concentrations of Geolycosa 17 greater than 7.5 μM increased EB uptake in all cells tested.

[3] = system: HL-60 cells differentiated with dibutryl cAMP; test: Mobilization of intracellular Ca2+ in fura-2 loaded differentiated HL-60 cells; settings: differentiated HL-60 cells loaded with fura-2
Method: The three peptides of the present invention isolated from the venom of the spider Geolycosa riogrande, designated Geolycosa 17, 15a and 15b, contain linear sequences of 25 (Geolycosa 17) or 27 (Geolycosa 15a and 15b) amino acids, lack cysteine, and are enriched in lysine. […] When tested at concentrations of 0.5 to 2 μM, all three peptides caused rapid and transient increases in [Ca^2+ ]i that persisted in the absence of extracellular Ca^2+ but were blocked when cellular stores of Ca^2+ were depleted by pretreatment with ionomycin.

Compound | effect of PTx pretreatment on mobilization of intracellular Ca2+ (HL-60 cells [1]) | EB uptake / pore formation at concentrations effective in mobilizing intracellular Ca2+ (HL-60 cells [2]) | permeabilization of cells indexed by uptake of ethidium bromide (EB) (HL-60 cells [2]) | rank order of potency for causing permeabilization of HL-60 cells (HL-60 cells [2]) | EC50 (HL-60 cells [2]; EB uptake, read-out: EC50 for causing pore formation) | mobilization of intracellular Ca2+ [3] | potency relative to mastoparan (HL-60 cells [2]) | effect of PTx on pore formation (HL-60 cells [2]; pertussis toxin pretreatment) | EB uptake at slightly higher concentrations than those mobilizing Ca2+ (HL-60 cells [2]) | potency relative to Geolycosa 15a and Geolycosa 17 (HL-60 cells [2])
Nc1ncnc2c1ncn2[C@@H]1O[C@H](COP(=O)(O)OP(=O)(O)OP(=O)(O)O)[C@@H](O)[C@H]1O [ATP, reference compound] | blocked |  |  |  |  |  |  |  |  | 
CC[C@H](C)[C@H](NC(=O)CN)C(=O)NCC(=O)N[C@@H](C)C(=O)N[C@H](C(=O)N[C@@H](CC(C)C)C(=O)N[C@@H](CCCCN)C(=O)N[C@H](C(=O)N[C@@H](CC(C)C)C(=O)N[C@H](C(=O)N[C@H](C(=O)NCC(=O)N[C@@H](CC(C)C)C(=O)N1CCC[C@H]1C(=O)N[C@@H](C)C(=O)N[C@@H](CC(C)C)C(=O)N[C@H](C(=O)N[C@@H](CO)C(=O)N[C@@H](Cc1c[nH]c2ccccc12)C(=O)N[C@H](C(=O)N[C@@H](CCCCN)C(=O)N[C@@H](CCCNC(=N)N)C(=O)N[C@@H](CCCCN)C(=O)N[C@@H](CCCNC(=N)N)C(=O)N[C@@H](CCC(N)=O)C(=O)N[C@@H](CCC(N)=O)C(N)=O)[C@@H](C)CC)[C@@H](C)CC)[C@@H](C)O)[C@@H](C)O)C(C)C)C(C)C [melittin, reference compound] |  | caused significant pore formation | permeabilized HL-60 cells | melittin>Geolycosa 15b>Geolycosa 17=Geolycosa 15a>mastoparan | ~250 nM | caused the mobilization of intracellular Ca^2+ |  |  |  | 
Geolycosa 15a (KIKWLKAMKSIAKFIAKKQMKKHLGGE) | blocks | even less prone to cause increases in EB uptake | permeabilized cells | melittin>Geolycosa 15b>Geolycosa 17=Geolycosa 15a>mastoparan |  | mobilize intracellular Ca^2+ | about twice as potent | without effect |  | 
Geolycosa 15b (KIKWFKTMKSIAKFIAKEQMKKHLKGE) | failed to affect | little uptake of EB | permeabilized cells | melittin>Geolycosa 15b>Geolycosa 17=Geolycosa 15a>mastoparan |  | mobilize intracellular Ca^2+; also recorded: caused the mobilization of intracellular Ca^2+ |  |  | a large uptake of EB | about twice as potent
